This note sets out measurements from US11266649B2, “Pharmaceutical formulations” (Corvus Pharmaceuticals, Inc., priority 2018, dated 2022).

A short description of data set [1]: Storage stability: Total Impurities by stability-indicating HPLC. The note with it: API (Formula (III)) itself, reference. The class given is physicochemical.
Data set [2] in a line: Particle size distribution by laser diffraction, before and after jet-mill micronization. The class given is physicochemical. The procedure:
“Particle size distribution” or “PSD” or “size distribution” refers to the size of particles present in their relative proportions in a sample, as measured by laser diffraction spectroscopy. In aspects, the particle size distribution refers to the particle size distribution of all the drug particles in the composition. The particle size distribution of a sample is measured by laser diffraction spectroscopy. Laser diffraction spectrometers are commercially available as, e.g., MASTERSIZER® 3000 from Malvern Instruments Ltd, and HORIBA® LA-950 by Horiba Instruments, Inc., Irvine Calif. For laser diffraction spectroscopy, particle size distribution is generally described by D values, such as D90. In aspects, the laser diffraction spectroscopy can be analyzed by the Fraunhofer theory. In aspects, the laser diffraction spectroscopy can be analyzed by the Mie scattering theory. In aspects, the laser diffraction spectroscopy can be analyzed by a combination of the Fraunhofer theory and the Mie scattering theory.
Formulation (III) was micronized using a Sturtevant SDM jet mill with a 2 inch diameter loop. The process parameters were: inlet air pressure 120 psi; grind chamber 100 psi; nozzle air pressure 80 psi; manual fee rate.
Formulation (III) was micronized using a Sturtevant SDM jet mill with a 4 inch diameter loop. The process parameters were: inlet air pressure 120 psi; grind chamber 100 psi; nozzle air pressure 80 psi; manual fee rate.

Setting [3] is: 1 pass micronization, jet mill 2 inch diameter loop.
Where [4] appears, read: 1 pass micronization, jet mill 4 inch diameter loop.
Setting [5] is: 2 pass micronization, jet mill 4 inch diameter loop.
Where [6] appears, read: Before micronization, Table 1A, jet mill 2 inch diameter loop.
The mark [7] stands for this setting: Before micronization, Table 1B, jet mill 4 inch diameter loop.

As to `Cc1ccc(-c2nc(N)nc3c2nnn3Cc2cccc(COC3CCOC3)n2)o1` (centres unmarked) [Formula (III)], the “Total Impurities” value in data set [1] and in data set [1] (listed as API) was 0.80% each time. The D10 came out at 0.9 microns in data set [2] (setting [3]); 1.1 microns in data set [2] (setting [4]); 0.9 microns in data set [2] (setting [5]); 2.3 microns in data set [2] (setting [6]); 2.3 microns in data set [2] (setting [7]). For the same molecule, the D50 in data set [2] (setting [3]) is recorded as 3.3 microns; in data set [2] (setting [4]), 4.3 microns; in data set [2] (setting [5]) it was 3.1 microns; in data set [2] (setting [6]), 8.6 microns; in data set [2] (setting [7]), 8.6 microns. The D90 in data set [2] (setting [3]) was 8.2 microns; in data set [2] (setting [4]) it was 20.2 microns; in data set [2] (setting [5]) it was 8.3 microns; in data set [2] (setting [6]) it was 31.1 microns; in data set [2] (setting [7]) it was 31.1 microns.
